One assay addresses T1, CDK2/cyclin A2 (Homo sapiens, UniProt P24941).
T1 construct: purchased Carna Biosciences, Inc. QS S Assist CDK2/Cyclin A2_FP Kit
Description: Human CDK2/cyclin A2 inhibitory activity (QS S Assist CDK2/Cyclin A2_FP Kit, IMAP fluorescent polarization). The class given is biochemical. The following applies: read-out: CDK2 Activity symbol. How it is done:
Human CDK2/Cyclin A2 Inhibitory Activity
Each compound was analyzed for CDK2/cyclin A2 inhibitory activity with an assay kit (QS S Assist CDK2/Cyclin A2_FP Kit, available from Carna Biosciences, Inc.). This assay kit determines kinase activity on the basis of the IMAP technology by Molecular Devices. Specifically, the kinase activity is determined through quantification of a variation in fluorescent polarization caused by binding of a kinase-phosphorylated fluorescent substance to an IMAP-binding reagent.
An assay buffer was prepared by 10-fold dilution of the 10× assay buffer attached to the kit with distilled water, and each solution was prepared with the assay buffer. The assay buffer contained 20 mM HEPES (pH 7.4), 0.01% Tween 20, and 2 mM dithiothreitol. A test compound solution was prepared by dilution of the test compound with dimethyl sulfoxide (DMSO) to a concentration 100 times higher than the final concentration and then 25-fold dilution with the assay buffer to a concentration four times higher than the final concentration. An ATP/substrate/Metal solution was prepared by five-fold dilution of the 5×ATP/substrate/Metal solution attached to the kit with the assay buffer. An enzyme solution was prepared by dilution of the CDK2/cyclin A2 attached to the kit with the assay buffer to a concentration twice higher than the final concentration (final concentration of CDK2/cyclin A2: 2.5 ng/well). A detection reagent was prepared by five-fold dilution of 5×IMAP-binding buffer A with distilled water and 400-fold dilution of the IMAP-binding reagent with the diluted buffer.
(§1) The test compound solution (5 μL/well) and the ATP/substrate/Metal solution (5 μL/well) were added to a 384-well plate, and the enzyme solution or the assay buffer (10 μL/well) was added to the plate (total amount of the reaction mixture: 20 μL/well) for initiation of enzymatic reaction. […] The reaction was performed at room temperature for 60 minutes, and the detection reagent (60 μL/well) was then added to the plate, followed by further reaction for 30 minutes at room temperature under light shielding conditions. Subsequently, fluorescent polarization was determined with a microplate reader at an excitation wavelength of 485 nm and an emission wavelength of 535 nm.
The percent inhibition of enzyme activity was calculated for each test compound (note: enzyme activity=100% in the case of addition of the enzyme solution and addition of DMSO instead of the test compound solution, whereas enzyme activity […] in the case of addition of the assay buffer instead of the enzyme solution and addition of DMSO instead of the test compound solution). The percent inhibition of enzyme activity was fitted to a dose-response curve, to determine a 50% inhibitory concentration against CDK2/cyclin A2.
In each table, “+++” corresponds to IC50<10 nM, “++” 10 nM≤IC50<100 nM, and “+” 100 nM≤IC50.

Another assay addresses T2, CDK4/cyclin D3 (Homo sapiens, UniProt P11802).
T2 construct: purchased Carna Biosciences, Inc. QS S Assist CDK4/Cyclin D3_FP Kit
Put plainly: Human CDK4/cyclin D3 inhibitory activity (QS S Assist CDK4/Cyclin D3_FP Kit, IMAP fluorescent polarization). The format is biochemical. The following applies: read-out: CDK4 Activity symbol. The method, then: Human CDK4/Cyclin D3 Inhibitory Activity
Each compound was analyzed for CDK4/cyclin D3 inhibitory activity with an assay kit (QS S Assist CDK4/Cyclin D3_FP Kit, available from Carna Biosciences, Inc.). This assay kit determines kinase activity on the basis of the IMAP technology by Molecular Devices. Specifically, the kinase activity is determined through quantification of a variation in fluorescent polarization caused by binding of a kinase-phosphorylated fluorescent substance to an IMAP-binding reagent.
Each solution was prepared with the 10× assay buffer attached to the kit or a separately prepared assay buffer having the same composition as the assay buffer attached to the kit. An assay buffer was prepared by 10-fold dilution of the 10× assay buffer with distilled water. The assay buffer contains 20 mM HEPES (pH 7.4), 0.01% Tween20, and 2 mM dithiothreitol. A test compound solution was prepared by dilution of the test compound with dimethyl sulfoxide (DMSO) to a concentration 100 times higher than the final concentration and then 25-fold dilution with the assay buffer to a concentration four times higher than the final concentration. An ATP/substrate/Metal solution was prepared by five-fold dilution of the 5×ATP/substrate/Metal solution attached to the kit with the assay buffer. An enzyme solution was prepared by dilution of the CDK4/cyclin D3 attached to the kit with the assay buffer to a concentration twice higher than the final concentration (final concentration of CDK4/cyclin D3: 12.5 to 25 ng/well). A detection reagent was prepared by five-fold dilution of each of 5×IMAP-binding buffer A and 5×IMAP-binding buffer B with distilled water, mixing of IMAP-binding buffer A with IMAP-binding buffer B at a ratio of 85:15, and 400-fold dilution of the IMAP-binding reagent with the mixed buffer.
as §1, with “for 45” for “for 60”
The percent inhibition of enzyme activity was calculated for each test compound (note: enzyme activity=100% in the case of addition of the enzyme solution and addition of DMSO instead of the test compound solution, whereas enzyme activity […] in the case of addition of the assay buffer instead of the enzyme solution, and addition of DMSO instead of the test compound solution). The percent inhibition of enzyme activity was fitted to a dose-response curve, to determine a 50% inhibitory concentration against CDK4/cyclin D3.
In each table, “+++” corresponds to IC50<10 nM. “++” 10 nM […] IC50<100 nM, and “+” 100 nM≤IC50.

T2 sequence (P11802 whole entry): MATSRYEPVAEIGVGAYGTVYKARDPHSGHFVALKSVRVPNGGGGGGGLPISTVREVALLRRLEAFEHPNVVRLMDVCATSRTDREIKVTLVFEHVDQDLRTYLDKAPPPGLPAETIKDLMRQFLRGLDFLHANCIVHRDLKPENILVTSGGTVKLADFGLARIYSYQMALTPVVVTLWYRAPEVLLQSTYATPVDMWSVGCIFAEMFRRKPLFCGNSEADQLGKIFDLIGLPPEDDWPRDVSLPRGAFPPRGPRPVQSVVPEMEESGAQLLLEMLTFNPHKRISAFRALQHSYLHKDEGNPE
T2 sequence (P30281 whole entry partner): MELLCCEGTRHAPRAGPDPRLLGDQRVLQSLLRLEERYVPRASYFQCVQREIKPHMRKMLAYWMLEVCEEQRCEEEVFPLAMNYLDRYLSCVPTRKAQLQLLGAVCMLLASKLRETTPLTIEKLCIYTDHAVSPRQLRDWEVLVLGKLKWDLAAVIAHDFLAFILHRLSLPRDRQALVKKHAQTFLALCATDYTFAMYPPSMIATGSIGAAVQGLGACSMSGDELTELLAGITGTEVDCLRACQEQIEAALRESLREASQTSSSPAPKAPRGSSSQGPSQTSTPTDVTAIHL

For `C[C@@H](O)c1cc2cnc(Nc3ccc(N4CCNCC4=O)cn3)nc2c(N2C3CCCC2CC3)n1` [Compound 281], the figures for the IC50 on CDK2/cyclin A2 and at CDK4/cyclin D3 were not below 100 nM and less than 10 nM, respectively.
For `CO[C@H](C)c1cc2cnc(Nc3ccc(CN4CCNCC4)cn3)nc2c(N2CCCCC2)n1` [Compound 119], the IC50 is not below 100 nM on CDK2/cyclin A2 and less than 10 nM at CDK4/cyclin D3.
Take `C[C@@H](O)c1cc2cnc(Nc3ccc(C(=O)N4CCC(O)CC4)cn3)nc2c(N2CCCCC2)n1` [Compound 311]: the IC50 on CDK2/cyclin A2 is not below 100 nM; on CDK4/cyclin D3, less than 10 nM.
As to `OCCN1CCN(Cc2ccc(Nc3ncc4cc(C(F)F)nc(N5CCC(O)CC5)c4n3)nc2)CC1` [Compound 129], the IC50 is not below 100 nM on CDK2/cyclin A2 and less than 10 nM on CDK4/cyclin D3.
Turning to `Cc1nc(Nc2ncc3cc([C@@H](C)O)nc(N4CCOC[C@H]4C)c3n2)ccc1N1CCNCC1` [Compound 297], the figures for the IC50 on CDK2/cyclin A2 and at CDK4/cyclin D3 were not below 100 nM and less than 10 nM, respectively.
As to `CC(O)c1cc2cnc(Nc3ccc(CN4CCN(C)CC4C)cn3)nc2c(N2CCCCC2)n1` (stereo not drawn) [Compound 152], the IC50 on CDK2/cyclin A2 is not below 100 nM; on CDK4/cyclin D3, less than 10 nM.
With `C[C@@H](O)c1cc2cnc(Nc3ccc4c(n3)CN(CCO)C4)nc2c(N2CCCCC2)n1` [Compound 201], the values for the IC50 at CDK2/cyclin A2 and on CDK4/cyclin D3 were not below 100 nM and less than 10 nM, respectively.
Consider `C[C@@H](O)c1cc2cnc(Nc3ccc(CN4CCN(C)CC4)cn3)nc2c(N2CCOC[C@@H]2C)n1` [Compound 290], for which the IC50 at CDK2/cyclin A2 is not below 100 nM; at CDK4/cyclin D3, less than 10 nM.
With `C[C@@H](O)c1cc2cnc(Nc3ccc(C(=O)N4CC[C@H](N(C)C)C4)cn3)nc2c(N2CCCCC2)n1` [Compound 313], the IC50 on CDK2/cyclin A2 is not below 100 nM; on CDK4/cyclin D3, less than 10 nM.
`C[C@@H](O)c1cc2cnc(Nc3ccc4c(n3)CCN(C(=O)[C@H]3CCN3)C4)nc2c(N2CCCCC2)n1` [Compound 215]: the IC50 is not below 100 nM on CDK2/cyclin A2 and less than 10 nM at CDK4/cyclin D3.
On to `O=C1CNCCN1c1ccc(Nc2ncc3cc(CCO)nc(N4CCCCC4)c3n2)nc1` [Compound 93], for which the IC50 at CDK2/cyclin A2 is not below 100 nM; at CDK4/cyclin D3, less than 10 nM.
On to `C[C@@H]1CCN(c2nc([C@@H](C)O)cc3cnc(Nc4ccc(CN5CCN(C)CC5)cn4)nc23)C1` [Compound 138], for which the IC50 is not below 100 nM at CDK2/cyclin A2 and less than 10 nM on CDK4/cyclin D3.
Take `C[C@@H](O)c1cc2cnc(Nc3ccc4c(n3)CCN(C(=O)[C@H]3CCN(C)C3)C4)nc2c(N2C3CCC2CC3)n1` [Compound 225]: the IC50 was not below 100 nM on CDK2/cyclin A2 and less than 10 nM on CDK4/cyclin D3.
As for `C[C@@H](CO)c1cc2cnc(Nc3ccc(CN4CCN(CCO)CC4)cn3)nc2c(N2CCCCC2)n1` [Compound 167], the IC50 on CDK2/cyclin A2 is not below 100 nM; on CDK4/cyclin D3, less than 10 nM.
For `C[C@@H](O)c1cc2cnc(Nc3ccc(N4CCNCC4=O)cn3)nc2c(N2C3CCC2CC3)n1` [Compound 256], the results for the IC50 on CDK2/cyclin A2 and on CDK4/cyclin D3 were not below 100 nM and less than 10 nM, respectively.
For the compound `C[C@@H](O)c1cc2cnc(Nc3ccc(CN4CCN(CCO)CC4)cn3)nc2c(-c2ccccc2)n1` [Compound 190], the results for the IC50 at CDK2/cyclin A2 and on CDK4/cyclin D3 were not below 100 nM and 10 to 100 nM, respectively.
The like results for `C[C@@H](O)c1cc2cnc(Nc3ccc(CN4CCN(CCO)CC4)cn3)nc2c(N2CC[C@@H](F)C2)n1` [Compound 182] were, in that order, not below 100 nM and less than 10 nM.
On to `CO[C@H](C)c1cc2cnc(Nc3ccc(N4CCNCC4)nn3)nc2c(N2CCCCC2)n1` [Compound 118], for which the IC50 at CDK2/cyclin A2 is not below 100 nM; at CDK4/cyclin D3, less than 10 nM.
Turning to `C[C@@H](O)c1cc2cnc(Nc3ccc4c(n3)CCN(CCO)C4)nc2c(N2CCC(F)CC2)n1` [Compound 112], the figures for the IC50 at CDK2/cyclin A2 and at CDK4/cyclin D3 were not below 100 nM and less than 10 nM, respectively.
As for `C[C@@H](O)c1cc2cnc(Nc3ccc(CN4CCN(C)CC4)cn3)nc2c(N2CCC(C)(C)C2)n1` [Compound 142], the IC50 at CDK2/cyclin A2 is not below 100 nM; on CDK4/cyclin D3, less than 10 nM.
As for `C[C@@H](O)c1cc2cnc(Nc3ccc(CN4CCN(CCO)CC4)cn3)nc2c(N2CCC(C(F)(F)F)CC2)n1` [Compound 84], the IC50 is not below 100 nM on CDK2/cyclin A2 and less than 10 nM at CDK4/cyclin D3.
`OCCc1cc2cnc(Nc3ccc(N4CCNCC4)cn3)nc2c(N2CCOCC2)n1` [Compound 38]: the IC50 at CDK2/cyclin A2 and on CDK4/cyclin D3 was not below 100 nM in each case.
Consider `C[C@@H](O)c1cc2cnc(Nc3ccc(O[C@H]4CCN(CCO)C[C@@H]4F)cn3)nc2c(N2CCCCC2)n1` [Compound 131], for which the IC50 at CDK2/cyclin A2 was not below 100 nM; at CDK4/cyclin D3, 10 to 100 nM.
The like results for `C[C@@H](O)c1cc2cnc(Nc3ccc(CN4CCN(C)CC4)cn3)nc2c(N2CCC(F)CC2)n1` [Compound 115] were, in that order, not below 100 nM and less than 10 nM.
For `c1cc(Nc2ncc3cc(C4CCOC4)nc(N4CCCCC4)c3n2)ncc1CN1CCNCC1` (stereo not drawn) [Compound 206], the IC50 is not below 100 nM at CDK2/cyclin A2 and less than 10 nM on CDK4/cyclin D3.
`C[C@@H](O)c1cc2cnc(Nc3ccc4c(n3)CCN(C(=O)Cc3ccncc3)C4)nc2c(N2CCCCC2)n1` [Compound 285]: the figures for the IC50 at CDK2/cyclin A2 and on CDK4/cyclin D3 were not below 100 nM and 10 to 100 nM, respectively.
As to `C[C@@H](O)c1cc2cnc(Nc3ccc(CN4CCNCC4)cn3)nc2c(N2CCCC2C(=O)O)n1` (stereo partly drawn) [Compound 42], the IC50 at CDK2/cyclin A2 and at CDK4/cyclin D3 was not below 100 nM in each case.
Turning to `C[C@@H](O)c1cc2cnc(Nc3ccc(N4CCNCC4)nn3)nc2c(N2CCCCC2)n1` [Compound 91], the IC50 was not below 100 nM on CDK2/cyclin A2 and less than 10 nM at CDK4/cyclin D3.
The like results for `CC(O)c1cc2cnc(Nc3ccc(CN4CCN(CCO)CC4)cn3)nc2c(N2CCOCC2C)n1` (stereo not drawn) [Compound 294] were, in that order, not below 100 nM and less than 10 nM.
`FC(F)c1cc2cnc(Nc3ccc(N4CCNCC4)cn3)nc2c(N2CCOCC2)n1` [Compound 8]: the IC50 at CDK2/cyclin A2 was not below 100 nM; at CDK4/cyclin D3, 10 to 100 nM.
As to `CC(O)c1cc2cnc(Nc3ccc(N4CCNCC4=O)cn3)nc2c(N2C3CCC2COC3)n1` (stereo not drawn) [Compound 301], the results for the IC50 at CDK2/cyclin A2 and at CDK4/cyclin D3 were not below 100 nM and 10 to 100 nM, respectively.
Take `Cc1nc(Nc2ncc3cc([C@@H](C)O)nc(N4C5CCC4CC5)c3n2)ccc1N1CCN(C)CC1` [Compound 185]: the values for the IC50 at CDK2/cyclin A2 and at CDK4/cyclin D3 were not below 100 nM and less than 10 nM, respectively.
For the compound `CCN1CCN(C(=O)c2ccc(Nc3ncc4cc([C@@H](C)O)nc(N5CCCCC5)c4n3)nc2)CC1` [Compound 317], the figures for the IC50 on CDK2/cyclin A2 and at CDK4/cyclin D3 were not below 100 nM and less than 10 nM, respectively.
